Experimental data reported in patent US20110182850A1, “ORGANIC COMPOUNDS AND THEIR USES” (priority 2009, published 2011).

Biological target: T1, HCV NS3-4A serine protease (full-length NS3-4A protein, genotype 1a, strain HCV-1) (Hepatitis C virus genotype 1a, UniProt P26664)
T1 construct: using the full-length NS3-4A protein (genotype 1a, strain HCV-1)
Assay: HCV NS3-4A protease assay
Type: biochemical
Details: Protease IC50
Procedure: The inhibitory activity of certain compounds of Table A against HCV NS3-4A serine protease is determined in a homogenous assay using the full-length NS3-4A protein (genotype 1a, strain HCV-1) and a commercially available internally-quenched fluorogenic peptide substrate as described by Taliani, M., et al. 1996 Anal. Biochem. 240:60-67, which is incorporated by reference in its entirety.

T1 sequence (P26664 1658-1711): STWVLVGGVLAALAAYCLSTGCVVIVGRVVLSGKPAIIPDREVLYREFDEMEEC
T1 sequence (P26664 1027-1657): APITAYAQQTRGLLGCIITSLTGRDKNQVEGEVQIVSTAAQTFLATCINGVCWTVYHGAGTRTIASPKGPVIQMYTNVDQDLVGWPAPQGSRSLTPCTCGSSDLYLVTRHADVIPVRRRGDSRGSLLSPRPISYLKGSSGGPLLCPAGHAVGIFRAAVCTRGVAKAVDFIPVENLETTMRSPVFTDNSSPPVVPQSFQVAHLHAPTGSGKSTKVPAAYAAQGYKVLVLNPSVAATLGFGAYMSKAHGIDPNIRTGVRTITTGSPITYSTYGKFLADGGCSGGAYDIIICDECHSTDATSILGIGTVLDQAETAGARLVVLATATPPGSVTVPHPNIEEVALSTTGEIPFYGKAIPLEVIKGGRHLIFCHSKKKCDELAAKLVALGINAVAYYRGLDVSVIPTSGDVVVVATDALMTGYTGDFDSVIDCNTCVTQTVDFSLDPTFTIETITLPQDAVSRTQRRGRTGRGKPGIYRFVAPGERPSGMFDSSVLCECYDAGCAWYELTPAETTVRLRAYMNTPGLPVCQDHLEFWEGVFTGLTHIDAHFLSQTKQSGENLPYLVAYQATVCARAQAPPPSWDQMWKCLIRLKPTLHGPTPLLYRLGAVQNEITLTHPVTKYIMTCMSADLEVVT

`C=CCC(C)(NC(=O)[C@@H]1C[C@@]2(CN1C(=O)[C@@H](NC(=O)[C@@H](NC(=O)[C@@H]1CCCCN1C(C)C)C(C)(C)C)C(C)(C)C)C(C)(C)C21CCC1)C(=O)NS(=O)(=O)C1CC1` (stereo partly drawn) [Compound 85, (5R,8S)-N-{1-[(cyclopropylsulfonyl)carba-moyl]-1-methylbut-3-en-1-yl}-7-[(2S)-2-{[(2S)-2-({[(2S)-1-isopropylpiperidin-2-yl]carbonyl}amino)-3,3-dimethylbutanoyl]amino}-3,3-dimethylbutanoyl]-10,10-dimethyl-7-azadispiro[3.0.4.1]decane-8-carboxamide] was tested. Which IC50 did it give?
Its IC50 is 7630 nM.

For `C=C[C@@H]1C[C@]1(NC(=O)[C@@H]1C[C@@]2(CN1C(=O)[C@@H](NC(=O)[C@@H](NC(=O)[C@@H]1CCCCN1C(C)C)C1CCCCC1)C(C)(C)C)C(C)(C)C21CCC1)C(=O)NS(=O)(=O)C(F)(F)F` [Compound 78, (5R,8S)-7-[(2S)-2-{[(2S)-2-cyclohexyl-2-({[(2S)-1-isopropylpiperidin-2-yl]carbonyl}amino)acetyl]amino}-3,3-dimethylbutanoyl]-10,10-dimethyl-N-[(1R,2S)-1-{[(trifluoromethyl)sulfonyl]carbamoyl}-2-vinylcyclopropyl]-7-azadispiro[3.0.4.1]decane-8-carboxamide], which IC50 is on record?
Its IC50 is 2.5 nM.

`C=C[C@@H]1C[C@]1(NC(=O)[C@@H]1C[C@@]2(CN1C(=O)[C@@H](NC(=O)[C@@H](NC(=O)c1cnccn1)C1CCCCC1)C(C)(C)C)C(C)(C)C21CCC1)C(=O)NS(=O)(=O)C1(C)CC1` [Compound 64, (5R,8S)-7-[(2S)-2-({(2S)-2-cyclohexyl-2-[(pyrazin-2-ylcarbonyl)amino]acetyl}amino)-3,3-dimethylbutanoyl]-10,10-dimethyl-N-[(1R,2S)-1-{[(1-methylcyclopropyl)sulfonyl]carbamoyl}-2-vinylcyclopropyl]-7-azadispiro[3.0.4.1]decane-8-carboxamide] was tested. Which IC50 did it give?
Its IC50 is 1.5 nM.

With `C=C[C@@H]1C[C@]1(NC(=O)[C@@H]1C[C@@]2(CN1C(=O)[C@@H](NC(=O)C(NC(=O)c1cc3ccccc3[nH]1)C1CCCCC1)C(C)(C)C)C(C)(C)C21CCC1)C(=O)NS(=O)(=O)C1CC1` (stereo partly drawn) [Compound 125, (5R,8S)-7-[(2S)-2-({cyclohexyl[(1H-indol-2-ylcarbonyl)amino]acetyl}amino)-3,3-dimethylbutanoyl]-N-{(1R,2S)-1-[(cyclopropylsulfonyl)carba-moyl]-2-vinylcyclopropyl}-10,10-dimethyl-7-azadispiro[3.0.4.1]decane-8-carboxamide] as the compound, how does the IC50 read?
The IC50 was 1.5 nM.

For `C=C[C@@H]1C[C@]1(NC(=O)[C@@H]1C[C@@]2(CN1C(=O)[C@@H](NC(=O)[C@@H](NC(=O)[C@@H]1CCCCN1C(C)C)C1CCCCC1)C(C)(C)C)C(C)(C)C21CCC1)C(=O)NS(=O)(=O)C1CC1` [Compound 92, (5R,8S)-7-[(2S)-2-{[(2S)-2-cyclohexyl-2-({[(2S)-1-isopropylpiperidin-2-yl]carbonyl}amino)acetyl]amino}-3,3-dimethylbutanoyl]-N-{(1R,2S)-1-[(cyclopropylsulfonyl)carba-moyl]-2-vinylcyclopropyl}-10,10-dimethyl-7-azadispiro[3.0.4.1]decane-8-carboxamide], which IC50 is on record?
The IC50 was 0.4 nM.

How did the IC50 turn out when `C=C[C@@H]1C[C@]1(NC(=O)[C@@H]1C[C@@]2(CN1C(=O)[C@@H](NC(=O)C(NC(=O)c1cc(C(C)(C)C)nn1C)C1CCCCC1)C(C)(C)C)C(C)(C)C21CCC1)C(=O)NS(=O)(=O)C1CC1` (stereo partly drawn) [Compound 126, (5R,8S)-7-[(2S)-2-{[{[(3-tert-butyl-1-methyl-1H-pyrazol-5-yl)carbonyl]amino}(cyclohex-yl)acetyl]amino}-3,3-dimethylbutanoyl]-N-{(1R,2S)-1-[(cyclopropylsulfonyl)carba-moyl]-2-vinylcyclopropyl}-10,10-dimethyl-7-azadispiro[3.0.4.1]decane-8-carboxamide] was run?
Its IC50 is 8 nM.

How did the IC50 turn out when `C=C[C@H]1C[C@@]1(NC(=O)[C@@H]1C[C@@]2(CN1C(=O)[C@@H](NC(=O)[C@@H](NC(=O)C(C)(C)N1CCCCC1)C1CCCCC1)C(C)(C)C)C(C)(C)C21CCC1)C(=O)NS(=O)(=O)C1CC1` [Compound 104, (5R,8S)-7-[(2S)-2-({cyclohexyl[(2-methyl-2-piperidin-1-ylpropanoyl)amino]acetyl}amino)-3,3-dimethylbutanoyl]-N-{(1R,2S)-1-[(cyclopropylsulfonyl)carba-moyl]-2-vinylcyclopropyl}-10,10-dimethyl-7-azadispiro[3.0.4.1]decane-8-carboxamide] was run?
Its IC50 is 0.7 nM.

Same assay, conditions: read-out: Protease IC50

With `C=C[C@@H]1C[C@]1(NC(=O)[C@@H]1C[C@@]2(CN1C(=O)[C@@H](NC(=O)[C@@H](CC(=O)OC(C)(C)C)C(C)(C)C)C(C)(C)C)C(C)(C)C21CCC1)C(=O)NS(=O)(=O)C1CC1` [Compound 45, tert-butyl (3S)-3-{[(1S)-1-{[(5R,8S)-8-({(1R,2S)-1-[(cyclopropylsulfonyl)carba-moyl]-2-vinylcyclopropyl}carbamoyl)-10,10-dimethyl-7-azadispiro[3.0.4.1]dec-7-yl]carbonyl}-2,2-dimethylpropyl]carbamoyl}-4,4-dimethylpentanoate] as the compound, how does the IC50 read?
Its IC50 is 65 nM.

With `C=C[C@@H]1C[C@]1(NC(=O)[C@@H]1C[C@@]2(CN1C(=O)[C@@H](NC(=O)c1cocn1)C(C)(C)C)C(C)(C)C21CCC1)C(=O)NS(=O)(=O)C1CC1` [Compound 54, (5R,8S)-N-{(1R,2S)-1-[(cyclopropylsulfonyl)carba-moyl]-2-vinylcyclopropyl}-7-{(2S)-3,3-dimethyl-2-[(1,3-oxazol-4-ylcarbonyl)amino]butanoyl}-10,10-dimethyl-7-azadispiro[3.0.4.1]decane-8-carboxamide] as the compound, how does the IC50 read?
Its IC50 is 2150 nM.

With “(5R,8S)-7-[(2S)-2-{[(2S)-2- cyclohexyl-2-({[(2S)-1- isopropylpiperidin-2- yl]carbonyl}amino)acetyl] amino}-3,3-dimethylbutanoyl]-N- {(1R,2S)-1- [(cyclopropylsulfonyl)carba- moyl]-2-vinylcyclopropyl}- 10,10-dimethyl-7- azadispiro[3.0.4.1]decane-8- carboxamide [Compound 21]” as the compound, how does the IC50 read?
The IC50 was 0.5 nM.

Which IC50 does the source give for “(5R,8S)-7-{(2S)-2- [(cyclohexyl{[(1- methylcyclohexyl)carbonyl] amino}acetyl)amino]-3,3- dimethylbutanoyl}-N- {(1R,2S)-1- [(cyclopropylsulfonyl)carba- moyl]-2-vinylcyclopropyl}- 10,10-dimethyl-7- azadispiro[3.0.4.1]decane-8- carboxamide [Compound 128]” here?
The IC50 was 5 nM.

With `C=C[C@@H]1C[C@]1(NC(=O)[C@@H]1C[C@@]2(CN1C(=O)[C@@H](NC(=O)c1coc(CN(C)C)n1)C(C)(C)C)C(C)(C)C21CCC1)C(=O)NS(=O)(=O)C1CC1` [Compound 59, (5R,8S)-N-{(1R,2S)-1-[(cyclopropylsulfonyl)carba-moyl]-2-vinylcyclopropyl}-7-{(2S)-2-[({2-[(dimethylamino)methyl]-1,3-oxazol-4-yl}carbonyl)amino]-3,3-dimethylbutanoyl}-10,10-dimethyl-7-azadispiro[3.0.4.1]decane-8-carboxamide] as the compound, how does the IC50 read?
Its IC50 is 400 nM.

How did the IC50 turn out when `C=C[C@@H]1C[C@]1(NC(=O)[C@@H]1C[C@@]2(CN1C(=O)[C@@H](NC(=O)O[C@H](C(=O)N(C)C)C(C)(C)C)C(C)(C)C)C(C)(C)C21CCC1)C(=O)NS(=O)(=O)C1CC1` [Compound 42, (1S)-1-(dimethylcarbamoyl)-2,2-dimethylpropyl [(1S)-1-{[(5R,8S)-8-({(1R,2S)-1-[(cyclopropylsulfonyl)carba-moyl]-2-vinylcyclopropyl}carbamoyl)-10,10-dimethyl-7-azadispiro[3.0.4.1]dec-7-yl]carbonyl}-2,2-dimethylpropyl]carbamate] was run?
Its IC50 is 140 nM.
